Experimental findings from PubChem BioAssay (NCI) are described below.

Several values for one entry are separate records, joined by “and”; a condition that tells them apart may be missing. Equal entries are not always repeated.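 Cultured in 96-well plates, cells were exposed to test compound for 48 hours across five concentrations. At the GI50, growth is halved. The concentration for full growth arrest is given as TGI.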

Some test systems named below: CAKI-1 renal; COLO 205 colon; HT29 colon; IGROV1 ovarian; MOLT-4 leukemia; OVCAR-3 ovarian; SF-539 CNS; SK-MEL-2 melanoma; SK-MEL-28 melanoma; SK-MEL-5 melanoma.
Common to all, as to experiment: growth of human tumour cells (NCI), 48 h

As to `Oc1ccc(NC(=S)Nc2ccccc2)cc1`, the GI50 in the assay with CAKI-1 renal, in the assay with COLO 205 colon, in the assay on HT29 colon, in the assay with IGROV1 ovarian, in the assay on MOLT-4 leukemia and with OVCAR-3 ovarian was greater than 100 µM throughout. In addition, the GI50 in the assay on SF-539 CNS, in the assay with SK-MEL-2 melanoma, in the assay on SK-MEL-28 melanoma and in the assay with SK-MEL-5 melanoma was greater than 100 µM in each case. For the same compound, the TGI in the assay on CAKI-1 renal, in the assay on COLO 205 colon, in the assay on HT29 colon, in the assay with IGROV1 ovarian, in the assay with MOLT-4 leukemia and in the assay with OVCAR-3 ovarian was greater than 100 µM each time. The TGI in the assay on SF-539 CNS, with SK-MEL-2 melanoma, in the assay with SK-MEL-28 melanoma and with SK-MEL-5 melanoma was greater than 100 µM in each case.
As for `COC(=O)C(=O)C(CC(=O)Nc1cc(Cl)ccc1Cl)C(=O)OC` (stereo unspecified), the TGI in the assay on CAKI-1 renal, with COLO 205 colon, with HT29 colon, in the assay on IGROV1 ovarian, in the assay with MOLT-4 leukemia and with OVCAR-3 ovarian was greater than 100 µM throughout. Also, the TGI in the assay on SF-539 CNS, with SK-MEL-2 melanoma, in the assay with SK-MEL-28 melanoma and in the assay with SK-MEL-5 melanoma was greater than 100 µM throughout.
With `CC[C@@]1(O)C(=O)OCc2c1cc1n(c2=O)Cc2cc3cc(Cl)ccc3nc2-1`, the TGI is 1.07 µM and 1.19 µM in the assay on CAKI-1 renal; 1.41 µM and 1.47 µM in the assay with COLO 205 colon; 0.203 µM in the assay with HT29 colon; 1.85 µM and 2.34 µM in the assay with IGROV1 ovarian; 0.274 µM and 0.452 µM with OVCAR-3 ovarian; 0.677 µM and 0.691 µM with SK-MEL-2 melanoma. The TGI in the assay with SK-MEL-28 melanoma was 4.52 µM and 8.65 µM; with SK-MEL-5 melanoma, 0.0501 µM and 0.0636 µM. Moreover, the GI50 in the assay with COLO 205 colon is 0.02 µM and 0.0458 µM; with HT29 colon, 0.0269 µM and 0.0187 µM; in the assay on IGROV1 ovarian, 0.0327 µM and 0.162 µM; in the assay on MOLT-4 leukemia, 0.00119 µM; with OVCAR-3 ovarian, 0.0456 µM and 0.137 µM; in the assay with SF-539 CNS it was 0.00467 µM. Moreover, the GI50 was 0.169 µM and 0.187 µM in the assay with SK-MEL-2 melanoma; 0.0542 µM and 0.0355 µM with SK-MEL-28 melanoma; 0.0082 µM and 0.0181 µM in the assay on SK-MEL-5 melanoma.
As to `NC(N)=NN=c1c(=O)c2ccccc2c1=O`, the GI50 is 18.9 µM in the assay with CAKI-1 renal; 17.9 µM in the assay on COLO 205 colon; 2.81 µM with HT29 colon; 17.2 µM in the assay with IGROV1 ovarian; 1.46 µM with MOLT-4 leukemia; 13 µM in the assay with OVCAR-3 ovarian. The GI50 was 5.67 µM in the assay on SF-539 CNS, 20.7 µM in the assay on SK-MEL-2 melanoma, 2 µM with SK-MEL-28 melanoma and 2.93 µM in the assay with SK-MEL-5 melanoma. Also, the TGI in the assay on CAKI-1 renal is 41.2 µM; in the assay on COLO 205 colon, 32.4 µM; in the assay on HT29 colon it was 6.27 µM; in the assay with IGROV1 ovarian, 35.3 µM; in the assay on MOLT-4 leukemia, 3.82 µM; with OVCAR-3 ovarian, 26.4 µM. The TGI with SF-539 CNS worked out at 18 µM; with SK-MEL-2 melanoma, 40.1 µM; with SK-MEL-28 melanoma it was 3.88 µM; in the assay with SK-MEL-5 melanoma, 11.7 µM.
For the compound `COc1cccc(/C=N/[N-]C(=O)c2ccncc2)c1[O-].[Mn+2].[OH3+]`, the GI50 in the assay with CAKI-1 renal is 8.97 µM; in the assay with COLO 205 colon, 4.49 µM; in the assay on HT29 colon it was 4.7 µM; in the assay on IGROV1 ovarian, 8.29 µM; in the assay with MOLT-4 leukemia it was 3.24 µM; in the assay with OVCAR-3 ovarian, 3.51 µM. Further, the GI50 in the assay on SF-539 CNS was 2.51 µM; in the assay with SK-MEL-2 melanoma, 25.6 µM; in the assay with SK-MEL-28 melanoma it was 11.2 µM; in the assay with SK-MEL-5 melanoma, 12.3 µM. The TGI with CAKI-1 renal, in the assay on COLO 205 colon, in the assay on HT29 colon, with IGROV1 ovarian, in the assay on MOLT-4 leukemia and in the assay on OVCAR-3 ovarian was greater than 100 µM in each case. Moreover, the TGI in the assay on SF-539 CNS was 8.97 µM; in the assay on SK-MEL-2 melanoma, greater than 100 µM; in the assay on SK-MEL-28 melanoma, greater than 100 µM; in the assay with SK-MEL-5 melanoma it was 30.3 µM.
In the case of `C[N+]1=C(c2cccnc2/C=N/O)OCC1(C)C`, the TGI in the assay with CAKI-1 renal, in the assay with COLO 205 colon, with HT29 colon, with IGROV1 ovarian, with MOLT-4 leukemia and in the assay on OVCAR-3 ovarian was greater than 100 µM throughout. In addition, the TGI with SF-539 CNS, in the assay with SK-MEL-2 melanoma, with SK-MEL-28 melanoma and in the assay with SK-MEL-5 melanoma was greater than 100 µM in each case.
As to `O=c1cc(-c2ccc(Cl)cc2)[nH]c2ccccc12`, the GI50 was 47.3 µM in the assay with CAKI-1 renal; 35.1 µM in the assay on COLO 205 colon; 40.7 µM in the assay on HT29 colon; 61.5 µM in the assay on IGROV1 ovarian; 46.8 µM with MOLT-4 leukemia; 31.2 µM in the assay on OVCAR-3 ovarian. Further, the GI50 was 52.8 µM with SF-539 CNS, greater than 100 µM in the assay on SK-MEL-2 melanoma, greater than 100 µM in the assay with SK-MEL-28 melanoma and 26.7 µM in the assay on SK-MEL-5 melanoma. Moreover, the TGI in the assay with CAKI-1 renal, with COLO 205 colon, in the assay on HT29 colon, with IGROV1 ovarian, with MOLT-4 leukemia and with OVCAR-3 ovarian was greater than 100 µM throughout. The TGI in the assay with SF-539 CNS, in the assay with SK-MEL-2 melanoma, in the assay on SK-MEL-28 melanoma and with SK-MEL-5 melanoma was greater than 100 µM each time.
Take `C[C@@H](O)[C@@H](C)Oc1nc(Nc2ccc(S(=N)(=O)C3CC3)cc2)ncc1C(F)(F)F` (stereo partly specified): the GI50 in the assay with CAKI-1 renal is 0.039 µM; in the assay on COLO 205 colon, 0.0158 µM; in the assay on HT29 colon it was 0.033 µM; in the assay on IGROV1 ovarian it was 0.0291 µM; with MOLT-4 leukemia, 0.0255 µM; in the assay on OVCAR-3 ovarian it was 0.018 µM. Also, the GI50 in the assay on SF-539 CNS is 0.0162 µM; in the assay on SK-MEL-2 melanoma, 0.0219 µM; with SK-MEL-28 melanoma, 0.0294 µM; in the assay with SK-MEL-5 melanoma, 0.0266 µM. Also, the TGI is greater than 100 µM with CAKI-1 renal; 0.0328 µM in the assay on COLO 205 colon; 25.2 µM in the assay on IGROV1 ovarian; 0.0816 µM in the assay on MOLT-4 leukemia; 18.6 µM with OVCAR-3 ovarian; 0.0384 µM with SF-539 CNS. In addition, the TGI in the assay on SK-MEL-2 melanoma came to 0.0621 µM; with SK-MEL-28 melanoma, 0.178 µM; in the assay on SK-MEL-5 melanoma, 0.108 µM.
